Measurements from patent publication EP0799174B1, “BIOCIDAL ALCOHOLS, THEIR PRODUCTION AND THEIR USE” (SCHÜLKE & MAYR GMBH, priority 1994, dated 1996).

Legend:
Assay type in all cases: cell-based
[1] = tested on: Penicillium funiculosum ATCC 36839; assay: MIC values, water-soluble (inhibition titre, dilution series in CSL)
[2] = tested on: Candida albicans ATCC 10231; assay: as above
Description: (§1) Standard formulation: • Rewopal MPG 40 25.0 g • aromatic alcohol 10 mmol • dem.* water to 100 g • lactic acid for adjusting the pH value to 7.0 q.s.
(§2) In sterile test tubes, 5 ml each of the dilutions of the disinfectant in WSH (water of standardized hardness) are mixed with 5 ml double-concentrated casein peptone soybean flour peptone solution (CSL) or CSL and deactivating substances.
(§3) To determine the bacteriostatic action on Staphylococcus aureus and Proteus mirabilis the tubes are inoculated by adding 0.1 ml of a CSL culture diluted 1:10 with CSL and incubated for 24 h at 37°C.
(§4) To test the fungistatic action, 0.1 ml of an undiluted CSL culture of Candida albicans which has been incubated at 37°C for 72 h is used in each case. Evaluation takes place after 72 h at 37°C.
(§5) The highest dilution of the preparation in CSL or CSL and deactivating substances that still suppresses growth of the test germs after […] incubation serves as the measure of the multiplication-inhibiting action (inhibition titre).
(§6) In the case of the disinhibition tests, the culture media are to be adjusted to a pH value of 7.0 ± 0.2 according to the state of the disinfectant.
(§7) Standard formulation: • aromatic alcohol 5.0 % • Brij 58 5.0 % • 1,3-butanediol to 100 • Test germs: see above • Test method: see above

[3] = tested on: Staphylococcus aureus ATCC 6538; assay: as above
Description: as §1, §2, §3, §4, §5, §6, §7

[4] = tested on: Proteus vulgaris NCTC 4635; assay: as above
[5] = tested on: Aspergillus niger ATCC 6275; assay: as above
[6] = tested on: Mycobacterium terrae ATCC 15755; assay: Germ carrier experiment with standard cotton; parameters: key: E: individual colonies; M: several colonies; +: weak growth; ++: moderate growth; +++: heavy growth; ++++: very heavy growth; ∞: lawn growth; settings: Rewopal MPG 40 25.0%, aromatic alcohol 2.0 %, dem. water to 100
Description: • Rewopal MPG 40 25.0% • aromatic alcohol 2.0 % • dem. water to 100
The bacteria are elutriated with 5 ml CSL from a 24 h-old (37°C) culture onto CSA plates measuring approx. 9 cm in diameter, the suspension being diluted with CSL if necessary. The number of CFU/ml is to be determined using surface culture. It should be > 10^9/ml.
The sterilized and dried germ carriers are introduced into the bacterial suspension and left in it for 15 minutes, during which they are turned over twice.
A number (4) of contaminated, thoroughly impregnated germ carriers, corresponding to the proposed removal times - 15, 30, 60 and 120 minutes - is placed in a small dish and 10 ml of the disinfectant solution to be tested in WSH are poured over them. Air bubbles are to be removed by repeated turning of the germ carriers.
After the corresponding action times, the germ carriers are to be removed from the disinfectant solution, and after rinsing twice in each case for 1 min in 10 ml ML solution (see Appendix) to which the deactivating substances were optionally added, the germ carriers are placed onto the surface of a Löwenstein-Jensen nutrient medium with tweezers and moved backwards and forwards 3 to 4 times using light pressure. After inoculating the nutrient medium surface the small cloth is to remain lying directly above the condensed water level of the nutrient medium.
Germ carriers pre-treated in the same way, but kept in WSH for 120 minutes instead of in disinfectant solution are to be inoculated as a control. The inoculated tubes are incubated at 37°C for 3 weeks.

P. vulgaris = tested on: P. vulgaris
Description: (§8) Standard formulation: • aromatic alcohol 1 part • dimethylformamide 6 parts [table] The diameters of the inhibition zones are given in mm.

[7] = tested on: Aspergillus niger ATCC 6275; assay: MIC values, water-insoluble (covered area of plates, solutions in acetone); settings: solution in acetone, 100% means no inhibiting action
Description: (§9) [table] The size of the covered areas of the plates is given in %; 100% means no inhibiting action.

[8] = tested on: Candida albicans ATCC 10231; assay: as above; settings: solution in acetone, 100% means no inhibiting action
Description: as §9

[9] = tested on: Escherichia coli ATCC 11229; assay: as above; settings: solution in acetone, 100% means no inhibiting action
Description: as §9

[10] = tested on: Staphylococcus aureus ATCC 6538; assay: as above; settings: solution in acetone, 100% means no inhibiting action
Description: as §9

[11] = tested on: Pseudomonas aeruginosa ATCC 15442; assay: Plate diffusion test (agar diffusion test); settings: aromatic alcohol 1 part, dimethylformamide 6 parts
Description: as §8

[12] = tested on: Candida albicans ATCC 10231; assay: Plate diffusion test (agar diffusion test); settings: aromatic alcohol 1 part, dimethylformamide 6 parts
Description: as §8

[13] = tested on: Escherichia coli ATCC 11229; assay: Plate diffusion test (agar diffusion test); settings: aromatic alcohol 1 part, dimethylformamide 6 parts
Description: as §8

[14] = tested on: Staphylococcus aureus ATCC 6538; assay: Plate diffusion test (agar diffusion test); settings: aromatic alcohol 1 part, dimethylformamide 6 parts
Description: as §8

Ps. aeruginosa = assay: Quantitative surface test according to DGHM, alcoholic surface disinfectant; settings: additive (0.05% for single substances) in ethanol 25.0 % / 1-propanol 35.0 % formulation, germs deposited after approx. 20 minutes
Description: Standard formulation: • ethanol (MEK denatured) 25.0 % • 1-propanol 35.0 % • perfume 0.02 % • benzotriazole 0.001 % • Marlipal 013/70 0.1% (isotridecanpolyethyleneglycol-(7)-ether = C13 oxo alcohol + 7 mol ethylene oxide) • active ingredient additive x% • dem. water to 100 Test germ: Ps. aeruginosa Test method:
Quantitative surface test according to DGHM (Deutsche Gesellschaft für Hygiene and Microbiology = German Association for Hygiene and Microbiology). In order to exclude the effectiveness of the readily volatile alcohol components (ethanol, 1-propanol), the preparations were deposited onto the surfaces and the germs were deposited after approx. 20 minutes. Test surfaces: PVC and OP tiles Data as reduction factors (log stages)

[15] = tested on: Germ mixture of Staphylococcus aureus, Staphylococcus epidermis, Escherichia coli, Klebsiella pneumoniae, Enterobacter gergoviae, Pseudomonas aeruginosa …; assay: Preservative test: weekly loading of the sample with germ suspension; settings: aromatic alcohol 0.5% in sulfosuccinate 12.0% / betaine 3.0% formulation
Description: Standard formulation: • sulfosuccinate 12.0% • betaine 3.0% • aromatic alcohol 0.5% • re-fatting agent • skin care additives • thickener • dem. water to 100 Test germs: Germ mixture of Staphylococcus aureus, Staphylococcus epidermis, Escherichia coli, Klebsiella pneumoniae, Enterobacter gergoviae, Pseudomonas aeruginosa, Pseudomonas fluorescens, Pseudomonas putida, Aspergillus niger, Penicillium funiculosum, Candida albicans; Total germ count 10^8-10^9/ml. Test method: weekly loading of the sample with germ suspension; smear onto CS and Sabouraud agar. See also K.-H. Diehl, P. Oltmanns, J. Ramsbotham, Seife, Öle, Fette, Wachse 118 (1992) 546.
Data expressed semi-qualitatively: • - no growth < 10^2 CFU/g (CFU = colony-forming units) • + slight growth approx. 10^3 CFU/g • ++ moderate growth approx. 10^4-10^5 CFU/g • +++ heavy growth > 10^5 CFU/g

[16] = standard formulation: Rewopal MPG 40 25.0 g, aromatic alcohol 10 mmol, dem. water to 100 g, pH 7.0
[17] = standard formulation: aromatic alcohol 5.0 %, Brij 58 5.0 %, 1,3-butanediol to 100

Compound: Cc1cccc(CC(C)(C)CO)c1 [Alcohol 3, 2,2-dimethyl-3-(3-methylphenyl) propanol]
- MIC (minimum inhibiting concentration) P. funi. [1, 16]: 156 μmol/100 ml test solution
- MIC (minimum inhibiting concentration) P. funi. [1, 17]: 313 µmol/100 ml test solution
- MIC (minimum inhibiting concentration) C. albicans [2, 16]: 625 μmol/100 ml test solution
- MIC (minimum inhibiting concentration) C. albicans [2, 17]: 625 µmol/100 ml test solution
- MIC (minimum inhibiting concentration) S. aureus [3, 16]: 2,500 μmol/100 ml test solution
- MIC (minimum inhibiting concentration) S. aureus [3, 17]: 625 µmol/100 ml test solution
- MIC (minimum inhibiting concentration) P. vulgaris [4, 16]: 2,500 μmol/100 ml test solution
- MIC (minimum inhibiting concentration) P. vulgaris [4, 17]: 625 µmol/100 ml test solution
- MIC (minimum inhibiting concentration) A. niger [5, 16]: 156 μmol/100 ml test solution
- MIC (minimum inhibiting concentration) A. niger [5, 17]: 625 µmol/100 ml test solution
- growth of M. terrae after action time 15' [6]: +++
- growth of M. terrae after action time 30' [6]: +
- growth of M. terrae after action time 60' [6]: +
- growth of M. terrae after action time 120' [6]: E

Compound: CCC(CO)Cc1ccccc1Cl (stereo not drawn) [Alcohol 9]
- diameters of the inhibition zones, P. vulgaris (P. vulgaris): 0 mm
- size of the covered areas of the plates, A. niger ([7]; concentration 0.25 % by wt.): 100%
- size of the covered areas of the plates, A. niger ([7]; concentration 0.50 % by wt.): 90%
- size of the covered areas of the plates, A. niger ([7]; concentration 1.00 % by wt.): 20%
- size of the covered areas of the plates, C. albicans ([8]; concentration 0.25 % by wt.): 100%
- size of the covered areas of the plates, C. albicans ([8]; concentration 0.50 % by wt.): 100%
- size of the covered areas of the plates, C. albicans ([8]; concentration 1.00 % by wt.): 80%
- size of the covered areas of the plates, E. coli ([9]; concentration 0.25 % by wt.): 100%
- size of the covered areas of the plates, E. coli ([9]; concentration 0.50 % by wt.): 100%
- size of the covered areas of the plates, E. coli ([9]; concentration 1.00 % by wt.): 100%
- size of the covered areas of the plates, S. aureus ([10]; concentration 0.25 % by wt.): 100%
- size of the covered areas of the plates, S. aureus ([10]; concentration 0.50 % by wt.): 100%
- size of the covered areas of the plates, S. aureus ([10]; concentration 1.00 % by wt.): 80%
- diameters of the inhibition zones, P. aeruginosa [11]: 0 mm
- diameters of the inhibition zones, C. albicans [12]: 15 mm
- diameters of the inhibition zones, E. coli [13]: 11 mm
- diameters of the inhibition zones, S. aureus [14]: 15 mm

Compound: CC(C)(CO)Cc1ccccc1 [Alcohol 2, 2,2-dimethyl-3-phenyl-1-propanol]
- reduction factors (log stages) (Ps. aeruginosa; PVC, 30'): >6.0 log stages
- reduction factors (log stages) (Ps. aeruginosa; PVC, 60'): >5.4 log stages
- reduction factors (log stages) (Ps. aeruginosa; PVC, 240'): >6.5 log stages
- reduction factors (log stages) (Ps. aeruginosa; Tiles, 30'): 4.1 log stages
- reduction factors (log stages) (Ps. aeruginosa; Tiles, 60'): 4.9 log stages
- reduction factors (log stages) (Ps. aeruginosa; Tiles, 240'): >5.8 log stages
- MIC (minimum inhibiting concentration) P. funi. [1, 16]: 313 μmol/100 ml test solution
- MIC (minimum inhibiting concentration) C. albicans [2, 16]: 313 μmol/100 ml test solution
- MIC (minimum inhibiting concentration) S. aureus [3, 16]: 313 μmol/100 ml test solution
- MIC (minimum inhibiting concentration) P. vulgaris [4, 16]: 313 μmol/100 ml test solution
- MIC (minimum inhibiting concentration) A. niger [5, 16]: 313 μmol/100 ml test solution
- growth of M. terrae after action time 15' [6]: +++
- growth of M. terrae after action time 30' [6]: ++
- growth of M. terrae after action time 60' [6]: +
- growth of M. terrae after action time 120' [6]: M
- growth, 1st week ([15]; 1st week): - (no growth < 10^2 CFU/g)
- growth, 2nd week ([15]; 2nd week): - (no growth < 10^2 CFU/g)
- growth, 3rd week ([15]; 3rd week): - (no growth < 10^2 CFU/g)
- growth, 4th week ([15]; 4th week): - (no growth < 10^2 CFU/g)
- growth, 5th week ([15]; 5th week): - (no growth < 10^2 CFU/g)
